Data: US20130225548A1, “Pyridine Derivative and Medicinal Agent” (NIPPON SHINYAKU CO., LTD., priority 2010, published 2013)
Structures can show the parent of a compound that is named as a salt.

Molecular target: T1, Syk tyrosine kinase (Homo sapiens, UniProt P43405)
T1 construct: purchased Carna Biosciences, Inc
Assay: Test for Syk tyrosine kinase inhibitory activity (ELISA)
Assay type: biochemical
Details: Syk tyrosine kinase (Carna Biosciences), 25 μM ATP in substrate solution, 30° C. 1 hour, n=2; read-out: Evaluation (IC50, concentration inhibiting the tyrosine kinase activity at 50%)
Experimental: Test Example 1: Test for Syk Tyrosine Kinase Inhibitory Activity
1. Preparation of Test Substance
A test substance was prepared at 10 mM in dimethyl sulfoxide (DMSO), and further diluted with DMSO to concentrations of 1000, 300, 100, 30, 10, 3, 1, 0.3, 0.1, 0.03, and 0.01 μM. The resulting solutions were further diluted to 20-fold with an assay buffer, whereby test substance solutions were prepared. As a negative control, a solution obtained by diluting DMSO to 20-fold with an assay buffer was used. As the assay buffer, a buffer containing 15 mM Tris-HCl (pH 7.5), 0.01 (v/v) % Tween-20, and 1 mM dithiothreitol was used.
2. Measurement of Syk Tyrosine Kinase Inhibitory Activity
The activity was measured using the ELISA method. Each of the test substance solutions was added to a streptavidine-coated 96-well place (DELFIA Strip Plate 8×12 wells, PerkinElmer Co., Ltd,) at 10 μL per well (n=2), and a substrate solution (625 nM biotinylated peptide substrate, 25 μM ATP, 25 mM MgCl2, 15 mM Tris-HCl (pH 7.5), 0.01 (v/v) % Tween-20, 1 mM dithiothreitol) was added to the plate at 20 μL per well, and the resulting mixture was stirred. Finally, Syk tyrosine kinase (Carna Biosciences, Inc.) (previously diluted to 0.025 nM with the assay buffer) was added to the plate at 20 μL per well, and the resulting mixture was stirred. A reaction was allowed to proceed at 30° C. for 1 hour. After the plate was washed 4 times with a washing buffer (50 mM Tris-HCl (pH 7.5, 150 mM NaCl, 0.02 (v/v) % Tween-20), a blocking buffer (0.1% bovine serum albumin, 50 mM Tris-HCl (pH 7.5), 150 mM NaCl, 0.02 (v/v) % Tween-20) was added to the plate at 150 μL per well, and blocking was performed at 30° C. for 30 minutes. Then, the blocking buffer was removed, and a horseradish peroxidase-labeled anti-phosphorylated tyrosine antibody (BD Biosciences, Inc.) (previously diluted to 10000-fold with the blocking buffer) was added to the plate at 100 μL per well, and the plate was incubated at 30° C. for 30 minutes. After the plate was washed 4 times with the washing buffer, a 3,3′,5,5′-tetramethylbenzidine solution (Sigma-Aldrich Co., Ltd.) was added to the plate at 100 μL per well to develop the color for 10 minutes. The reaction was stopped by adding 0.1 M sulfuric acid at 100 μL per well. The absorbance at 450 nm was measured using a microplate reader (Multiskan F C, Thermo Fisher Scientific K,K.).
3. Analysis of Measurement Results
A non-linear regression analysis was performed for the measured absorbance using the SAS system (SAS institute. Inc.), and a concentration of each of the test substances: inhibiting the tyrosine kinase activity at 50% (IC50 ) was calculated. A case where IC50 is […] was evaluated as ***, a case where IC50 is 5 nM or more and less than 50 nM was evaluated as **, and a case where IC50 is 50 nM or more and less than 500 nM was evaluated as *, which are shown in the column of evaluation item.

Row | Molecule | IC50
1 | 2-({4-cyclopropyl-6-[2-ethyl-1-(trans-4-hydroxycyclohexyl)-1H-benzimidazol-6-yl]pyridin-2-yl}amino)pyridine-4-carbonitrile hydrochloride [Example 157] | < 5 nM
2 | 2-({6-[1-(4-cyanopiperidin-1-yl)isoquinolin-7-yl]-4-cyclopropylpyridin-2-yl}amino)pyridine-4-carbonitrile hydrochloride [Example 170] | 5 to 50 nM
3 | CC(=O)O[C@@H]1CCC[C@H]1n1cnc2ccc(-c3cc(C4CC4)cc(Nc4cc(C#N)ccn4)n3)cc21 (relative stereo) [Example 141, trans-2-(6-{6-[(4-cyanopyridin-2-yl)amino]-4-cyclopropylpyridin-2-yl}-1H-benzimidazol-1-yl)cyclopentyl acetate hydrochloride] | 50 to 500 nM
4 | N#Cc1ccnc(Nc2cc(C3CC3)cc(-c3ccc4ncn([C@@H]5CCCC[C@H]5O)c4c3)n2)c1 (relative stereo) [Example 146, 2-[(4-cyclopropyl-6-{1[trans-2-hydroxycyclohexyl]-1H-benzimidazol-6-yl}pyridin-2-yl)amino]pyridine-4-carbonitrile hydrochloride] | 5 to 50 nM
5 | N#Cc1ccnc(Nc2cc(C3CC3)cc(-c3ccc4c(c3)ncn4[C@@H]3CCCC[C@H]3O)n2)c1 (relative stereo) [Example 152, 2-[(4-cyclopropyl-6-{1-[trans-2-hydroxycyclohexyl]-1H-benzimidazol-5-yl}pyridin-2-yl)amino]pyridine-4-carbonitrile hydrochloride] | 50 to 500 nM
6 | N#Cc1ccnc(Nc2cc(C3CC3)cc(-c3ccc(N4CCS(=O)(=O)CC4)nc3)n2)c1 [Example 3, 2-{[4-cyclopropyl-6′-(1,1-dioxidethiomorpholin-4-yl)-2,3′-bipyridin-6-yl]amino}pyridine-4-carbonitrile hydrochloride] | < 5 nM
7 | N#Cc1ccnc(Nc2cc(C3CC3)cc(-c3ccc(N4CCC(=O)CC4)nc3)n2)c1 [Example 4, 2-{[4-cyclopropyl-6′-(4-oxopiperidin-1-yl)-2,3′-bipyridin-6-yl]amino}pyridine-4-carbonitrile hydrochloride] | 5 to 50 nM
8 | N#Cc1ccnc(Nc2cc(C3CC3)cc(-c3ccc(N4CCNC(=O)C4)nc3)n2)c1 [Example 5, 2-{[4-cyclopropyl-6′-(3-oxopiperazin-1-yl)-2,3′-bipyridin-6-yl]amino}pyridine-4-carbonitrile hydrochloride] | 5 to 50 nM
9 | N#Cc1ccnc(Nc2cc(C3CC3)cc(-c3ccc(N4CCN(CC(N)=O)CC4)nc3)n2)c1 [Example 7, 2-(4-{6-[(4-cyanopyridin-2-yl)amino]-4-cyclopropyl-2,3′-bipyridin-6′-yl}piperazin-1-yl)acetamide hydrochloride] | 50 to 500 nM
10 | CC(=O)N1CCCN(c2ccc(-c3cc(C4CC4)cc(Nc4cc(C#N)ccn4)n3)cn2)CC1 [Example 9, 2-{[6′-(4-acetyl-1,4-diazepan-1-yl)-4-cyclopropyl-2,3′-bipyridin-6-yl]amino}pyridine-4-carbonitrile hydrochloride] | 50 to 500 nM
11 | N#Cc1ccnc(Nc2cc(C3CC3)cc(-c3ccc(N4CCCN(C(N)=O)CC4)nc3)n2)c1 [Example 10, 4-{6-[(4-cyanopyridin-2-yl)amino]-4-cyclopropyl-2,3′-bipyridin-6′-yl}-1,4-diazepane-1-carboxamide hydrochloride] | 5 to 50 nM
12 | N#Cc1ccnc(Nc2cc(C3CC3)cc(-c3ccc4c(c3)ncn4CCN)n2)c1 [Example 13, 2-({6-[1-(2-aminoethyl)-1H-benzimidazol-5-yl]-4-cyclopropylpyridin-2-yl}amino)pyridine-4-carbonitrile hydrochloride] | 5 to 50 nM
13 | Cn1cnc2cc(-c3cc(C4CC4)cc(Nc4cc(C#N)ccn4)n3)ccc21 [Example 15, 2-{[4-cyclopropyl-6-(1-methyl-1H-benzimidazol-5-yl)pyridin-2-yl]amino}pyridine-4-carbonitrile hydrocloride] | 5 to 50 nM
14 | N#Cc1ccnc(Nc2cc(C3CC3)cc(-c3ccc4c(c3)ncn4C3CCOCC3)n2)c1 [Example 16, 2-({4-cyclopropyl-6-[1-tetrahydro-2H-pyran-4-yl)-1H-benzimidazol-5-yl]pyridin-2-yl}amino)pyridine-4-carbonitrile hydrochloride] | 5 to 50 nM

Continued, values first:

Row | IC50 | Molecule
15 | 5 to 50 nM | N#Cc1ccnc(Nc2cc(C3CC3)cc(-c3ccc(N4CCOCC4)nc3)n2)c1 [Example 1, 2-{[4-cyclopropyl-6′-(morpholin-4-yl)-2,3′-bipyridin-6-yl]amino}pyridine-4-carbonitrile hydrochloride]
16 | 5 to 50 nM | N#Cc1ccnc(Nc2cc(C3CC3)cc(-c3ccc(NCCO)nc3)n2)c1 [Example 2, 2-({4-cyclopropyl-6′-[(2-hydroxyethyl)amino]-2,3′-bypyridin-6-yl}amino)pyridine-4-carbonitrile hydrochloride]
17 | 5 to 50 nM | N#Cc1ccnc(Nc2cc(C3CC3)cc(-c3ccc(N4CC(O)C4)nc3)n2)c1 [Example 6, 2-{[4-cyclopropyl-6′-(3-hydroxyazetidin-1-yl)-2,3′-bipyridin-6-yl]amino}pyridine-4-carbonitrile hydrochloride]
18 | 50 to 500 nM | N#Cc1ccnc(Nc2cc(C3CC3)cc(-c3ccc(N4C[C@H](O)CC4=O)nc3)n2)c1 [Example 8, 2-({4-cyclopropyl-6′-[(4R)-4-hydroxy-2-oxopyrrolidin-1-yl]-2,3′-bipyridin-6-yl}amino)pyridine-4-carbonitrile hydrochloride]
19 | 50 to 500 nM | N#Cc1ccnc(Nc2cc(C3CC3)cc(-c3ccc(N4C[C@@H](O)CC4=O)nc3)n2)c1 [Example 11, 2-({4-cyclopropyl-6′-[(4S)-4-hydroxy-2-oxopyrrolidin-1-yl]-2,3′-bipyridin-6-yl}amino)pyridine-4-carbonitrile hydrochloride]
20 | 50 to 500 nM | N#Cc1ccnc(Nc2cc(C3CC3)cc(-c3ccc(N[C@H]4CC[C@H](O)CC4)nc3)n2)c1 [Example 12, 2-({4-cyclopropyl-6′-[(trans-4-hydroxycyclohexyl)amino]-2,3′-bipyridin-6-yl}amino)pyridine-4-carbonitrile hydrochloride]
21 | 5 to 50 nM | N#Cc1ccnc(Nc2cc(C3CC3)cc(-c3ccc4c(c3)ncn4[C@H]3CC[C@H](O)CC3)n2)c1 [Example 14, 2-({4-cyclopropyl-6-[1-(trans-4-hydroxycyclohexyl)-1H-benzimidazol-5-yl]pyridin-2-yl}amino)pyridine-4-carbonitrile hydrochloride]
22 | 50 to 500 nM | N#Cc1ccnc(Nc2cc(C3CC3)cc(-c3ccc(C#N)nc3)n2)c1 [Example 17, 6-[(4-cyanopyridin-2-yl)amino]-4-cyclopropyl-2,3′-bipyridine-6′-carbonitrile hydrochloride]
23 | 5 to 50 nM | N#Cc1ccnc(Nc2cc(C3CC3)cc(-c3ccc(N)nc3)n2)c1 [Example 18, 2-[(6′-amino-4-cyclopropyl-2,3′-bipyridin-6-yl)amino]pyridine-4-carbonitrile hydrochloride]
24 | < 5 nM | N#Cc1ccnc(Nc2cc(C3CC3)cc(-c3ccc(NCCN)nc3)n2)c1 [Example 19, 2-({6′-[(2-aminoethyl)amino]-4-cyclopropyl-2,3′-bipyridin-6-yl}amino)pyridine-4-carbonitrile dihydrochloride]
25 | 5 to 50 nM | N#Cc1ccnc(Nc2cc(C3CC3)cc(-c3ccc(N4CCC(O)CC4)nc3)n2)c1 [Example 20, 2-{[4-cyclopropyl-6′-(4-hydroxypiperidin-1-yl)-2,3′-bipyridin-6-yl]amino}pyridine-4-carbonitrile hydrochloride]
26 | 5 to 50 nM | COCCNc1ccc(-c2cc(C3CC3)cc(Nc3cc(C#N)ccn3)n2)cn1 [Example 21, 2-({4-cyclopropyl-6′-[(2-methoxyethyl)amino]-2,3′-bipyridin-6-yl}amino)pyridine-4-carbonitrile hydrochloride]
